Test results published in the SangsterLogP compilation.

Experiment: method code SF, from DOI: 10.1007/bf00302523

| Structure (SMILES) | logP |
| --- | --- |
| COP(=O)(OC)Oc1cc(C)c([N+](=O)[O-])c(C)c1 | 2.26 |
| COP(=O)(OC)Oc1ccc([N+](=O)[O-])c(C)c1 | 1.69 |
| COP(=S)(OC)Oc1ccc([N+](=O)[O-])c(C(C)C)c1 | 4.05 |
| COP(=S)(OC)Oc1ccc([N+](=O)[O-])cc1Cl | 3.44 |
| COP(=O)(OC)Oc1ccc([N+](=O)[O-])cc1Cl | 1.84 |
| COP(=S)(OC)Oc1ccc([N+](=O)[O-])c(C)c1 | 3.3 |
| CCc1cc(OP(=S)(OC)OC)ccc1[N+](=O)[O-] | 3.74 |
| COP(=O)(OC)Oc1ccc([N+](=O)[O-])c(C(C)C)c1 | 2.57 |
| COP(=S)(OC)Oc1cc(C)c([N+](=O)[O-])c(C)c1 | 3.89 |
| COP(=O)(OC)Oc1ccc([N+](=O)[O-])c(Cl)c1 | 1.83 |
| CCc1cc(OP(=O)(OC)OC)ccc1[N+](=O)[O-] | 2.19 |
| COP(=S)(OC)Oc1ccc([N+](=O)[O-])c(Cl)c1 | 3.45 |
